Data taken from patent US12139492B2 (Endotarget Inc., priority 2021, dated 2024).
Read-outs that look alike come from different tables or passages of the source.

How the values were obtained:
[1] = system: JeKo-1 cells; test: Antiproliferative effect, MTS cell viability assay, JeKo-1 cells; format: cell-based; conditions: Homo sapiens; JeKo-1 mantle cell lymphoma cells; read-out: IC50 (anti-proliferation) JeKO-1 cells
How it was run: (§1)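 Mino and JeKo-1 mantle B-cell lymphoma lines were exposed to compound at 0, 0.001, 0.01, 0.1, 1 and 10 μM for 72 h. Viability was read by MTS reduction to formazan, measured as absorbance at 490 nm.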

[2] = target: BTK (Homo sapiens, UniProt Q06187); test: Degradation of BTK protein in Namalwa cells (Western blot; DC50, Dmax); conditions: for DC50: cell line not given; for degradation of BTK protein: Namalwa B lymphocyte cells, various concentrations, 24 hours, Western blot
Chain of BTK (Q06187 whole entry): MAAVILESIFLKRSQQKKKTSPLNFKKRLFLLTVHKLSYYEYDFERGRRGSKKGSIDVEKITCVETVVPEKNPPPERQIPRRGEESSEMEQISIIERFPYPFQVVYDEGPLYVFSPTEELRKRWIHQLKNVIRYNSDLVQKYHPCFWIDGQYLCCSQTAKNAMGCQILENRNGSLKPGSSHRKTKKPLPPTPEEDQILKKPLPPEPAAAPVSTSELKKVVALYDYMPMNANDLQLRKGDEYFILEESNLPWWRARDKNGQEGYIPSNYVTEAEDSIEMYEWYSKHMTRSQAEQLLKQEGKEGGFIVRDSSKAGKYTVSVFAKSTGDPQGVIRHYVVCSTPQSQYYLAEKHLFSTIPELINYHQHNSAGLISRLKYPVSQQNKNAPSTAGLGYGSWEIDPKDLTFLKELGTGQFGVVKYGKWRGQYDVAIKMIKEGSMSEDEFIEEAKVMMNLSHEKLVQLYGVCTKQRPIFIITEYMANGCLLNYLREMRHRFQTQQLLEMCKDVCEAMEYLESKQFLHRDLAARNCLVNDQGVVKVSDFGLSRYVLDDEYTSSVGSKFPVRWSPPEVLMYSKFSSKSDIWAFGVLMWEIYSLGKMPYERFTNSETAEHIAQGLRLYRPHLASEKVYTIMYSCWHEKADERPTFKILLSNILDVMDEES

[3] = system: Mino cells; test: Antiproliferative effect, MTS cell viability assay, Mino cells; format: cell-based; conditions: Homo sapiens, MINO, Mino mantle cell lymphoma cells; read-out: IC50 (anti-proliferation) Mino cells
How it was run: as §1

[4] = read-out: DC50 (BTK degradation), concentration giving 50% reduction of BTK expression level
[5] = read-out: Dmax (BTK degradation)

Row | SMILES | IC50 [1] [nM] | DC50 [2, 4] [nM] | Dmax [2, 5] [%] | IC50 [3] [nM] | degradation of BTK protein [2] | Dmax [2] [%] | DC50 ([2]; BTK degradation) [nM]
1 | NC(=O)c1c(-c2ccc(Oc3ccccc3)cc2)nn2c1NCC[C@H]2C1CCN(CC2CCN(C(=O)N3CCN(c4ccc5c(c4)CN(C4CCC(=O)NC4=O)C5=O)CC3)CC2)CC1 (stereo partly drawn) [Compound 398, (7S)-7-(1-((1-(4-(2-(2,6-dioxopiperidin-3-yl)-1-oxoisoindolin-5-yl)piperazine-1-carbonyl)piperidin-4-yl)methyl)piperidin-4-yl)-2-(4-phenoxyphenyl)-4,5,6,7-tetrahydropyrazolo[1,5-a]pyrimidine-3-carboxamide] | > 10000 | > 50 | > 50 | > 10000 |  |  | 
2 | Nc1ncnc2c1c(-c1ccc(Oc3ccccc3)cc1)nn2C1CCN(CC2CCN(CC3CN(CC4CN(c5ccc6c(c5)C(=O)N(C5CCC(=O)NC5=O)C6=O)C4)C3)C2)CC1 (stereo not drawn) [Compound 427, 5-(3-((3-((3-((4-(4-amino-3-(4-phenoxyphenyl)-1H-pyrazolo(3,4-d)pyrimidin-1-yl)piperidin-1-yl)methyl)pyrrolidin-1-yl)methyl)azetidin-1-yl)methyl)azetidin-1-yl)-2-(2,6-dioxopiperidin-3-yl)isoindoline-1,3-dione] | 1000 to 10000 | > 50 | > 90 | 1000 to 10000 | dose-dependent degradation |  | 
3 | NC(=O)c1c(-c2ccc(Oc3ccccc3)cc2)nn2c1NCC[C@H]2C1CCN(C2CCN(C(=O)N3CCC(CN4CCC(c5ccc6c(c5)C(=O)N(C5CCC(=O)NC5=O)C6=O)CC4)CC3)CC2)CC1 (stereo partly drawn) [Compound 395, (7S)-7-(1′-(4-((4-(2-(2,6-dioxopiperidin-3-yl)-1,3-dioxoisoindolin-5-yl)piperidin-1-yl)methyl)piperidine-1-carbonyl)-[1,4′-bipiperidin]-4-yl)-2-(4-phenoxyphenyl)-4,5,6,7-tetrahydropyrazolo[1,5-a]pyrimidine-3-carboxamide] | 1000 to 10000 | 10 to 50 | > 75 | 1000 to 10000 |  |  | 
4 | NC(=O)c1c(-c2ccc(Oc3ccccc3)cc2)nn2c1NCCC2C1CCN(C2CCN(C(=O)N3CCC(CN4CCN(c5ccc6c(c5)C(=O)N(C5CCC(=O)NC5=O)C6=O)CC4)CC3)CC2)CC1 (stereo not drawn) [Compound 349, 7-(1′-(4-((4-(2-(2,6-dioxopiperidin-3-yl)-1,3-dioxoisoindolin-5-yl)piperazin-1-yl)methyl)piperidine-1-carbonyl)-[1,4′-bipiperidin]-4-yl)-2-(4-phenoxyphenyl)-4,5,6,7-tetrahydropyrazolo[1,5-a]pyrimidine-3-carboxamide] | 1000 to 10000 |  |  | 1000 to 10000 |  | > 90 | 10 to 50
5 | Nc1ncnc2c1c(-c1ccc(Oc3ccccc3)cc1)nn2[C@@H]1CCCN(C2CCN(C(=O)NC3CCC(=O)NC3=O)CC2)C1 (stereo partly drawn) [Compound 517, (3R)-3-(4-amino-3-(4-phenoxyphenyl)-1H-pyrazolo[3,4-d]pyrimidin-1-yl)-N-(2,6-dioxopiperidin-3-yl)-[1,4′-bipiperidine]-1′-carboxamide] | 1000 to 10000 | < 10 | > 75 | 1000 to 10000 |  |  | 
6 | Nc1ncnc2c1c(-c1ccc(Oc3ccccc3)cc1)nn2C1CCN(C2CCN(C(=O)N3CCN(C4CCN(c5ccc6c(c5)CN(C5CCC(=O)NC5=O)C6=O)CC4)CC3)CC2)CC1 (stereo not drawn) [Compound 234, 3-(5-(4-(4-(4-(4-amino-3-(4-phenoxyphenyl)-1H-pyrazolo[3,4-d]pyrimidin-1-yl)-[1,4′-bipiperidine]-1′-carbonyl)piperazin-1-yl)piperidin-1-yl)-1-oxoisoindolin-2-yl)piperidine-2,6-dione] | 1000 to 10000 |  |  | 1000 to 10000 |  | > 75 | 10 to 50
7 | Nc1ncnc2c1c(-c1ccc(Oc3ccccc3)cc1)nn2C1CCN(C2CCN(CCCN3CCC(c4ccc5c(c4)C(=O)N(C4CCC(=O)NC4=O)C5=O)CC3)CC2)CC1 (stereo not drawn) [Compound 223, 5-(1-(3-(4-(4-amino-3-(4-phenoxyphenyl)-1H-pyrazolo[3,4-d]pyrimidin-1-yl)-[1,4′-bipiperidin]-1′-yl)propyl)piperidin-4-yl)-2-(2,6-dioxopiperidin-3-yl)isoindoline-1,3-dione] | 1000 to 10000 |  |  | 1000 to 10000 |  | > 75 | 10 to 50
8 | NC(=O)c1c(-c2ccc(Oc3ccccc3)cc2)nn2c1NCCC2C1CCN(C(=O)N2CCN(CCN3CCN(c4ccc5c(c4)CN(C4CCC(=O)NC4=O)C5=O)CC3)CC2)CC1 (stereo not drawn) [Compound 282, 7-(1-(4-(2-(4-(2-(2,6-dioxopiperidin-3-yl)-1-oxoisoindolin-5-yl)piperazin-1-yl)ethyl)piperazine-1-carbonyl)piperidin-4-yl)-2-(4-phenoxyphenyl)-4,5,6,7-tetrahydropyrazolo[1,5-a]pyrimidine-3-carboxamide] | > 10000 |  |  | 1000 to 10000 |  | > 90 | 10 to 50
9 | NC(=O)c1c(-c2ccc(Oc3ccccc3)cc2)nn2c1NCC[C@H]2C1CCN(C2CCN(C(=O)N3CCN(Cc4ccc5c(c4)CN(C4CCC(=O)NC4=O)C5=O)CC3)CC2)CC1 (stereo partly drawn) [Compound 380, (7S)-7-(1′-(4-((2-(2,6-dioxopiperidin-3-yl)-1-oxoisoindolin-5-yl)methyl)piperazine-1-carbonyl)-[1,4′-bipiperidin]-4-yl)-2-(4-phenoxyphenyl)-4,5,6,7-tetrahydropyrazolo[1,5-a]pyrimidine-3-carboxamide] | > 10000 |  |  | 1000 to 10000 |  | > 75 | > 50
10 | Nc1ncnc2c1c(-c1ccc(Oc3ccccc3)cc1)nn2C1CCN(CC2CCN(CC3CCN(c4ccc(NC5CCC(=O)NC5=O)cc4)CC3)C2)CC1 (stereo not drawn) [Compound 562, 3-((4-(4-((3-((4-(4-amino-3-(4-phenoxyphenyl)-1H-pyrazolo[3,4-d]pyrimidin-1-yl)piperidin-1-yl)methyl)pyrrolidin-1-yl)methyl)piperidin-1-yl)phenyl)amino)piperidine-2,6-dione] | 1000 to 10000 | 10 to 50 | > 90 | 1000 to 10000 |  |  | 
11 | Nc1ncnc2c1c(-c1ccc(Oc3ccccc3)cc1)nn2C1CCN(C2CCN(C(=O)N3CCN(c4ccc5c(c4)CN(C4CCC(=O)NC4=O)C5=O)CC3)CC2)CC1 (stereo not drawn) [Compound 230, 3-(5-(4-(4-(4-amino-3-(4-phenoxyphenyl)-1H-pyrazolo[3,4-d]pyrimidin-1-yl)-[1,4′-bipiperidine]-1′-carbonyl)piperazin-1-yl)-1-oxoisoindolin-2-yl)piperidine-2,6-dione] | 1000 to 10000 |  |  | 1000 to 10000 |  | > 50 | > 50
12 | Nc1ncnc2c1c(-c1ccc(Oc3ccccc3)cc1)nn2C1CCN(CCOCCOCCN2CC=C(c3ccc4c(c3)CN(C3CCC(=O)NC3=O)C4=O)CC2)CC1 (stereo not drawn) [Compound 417, 3-(5-(1-(2-(2-(2-(4-(4-amino-3-(4-phenoxyphenyl)-1H-pyrazolo[3,4-d]pyrimidin-1-yl)piperidin-1-yl)ethoxy)ethoxy)ethyl)-1,2,3,6-tetrahydropyridin-4-yl)-1-oxoisoindolin-2-yl)piperidine-2,6-dione] | 1000 to 10000 | 10 to 50 | > 75 | 1000 to 10000 | dose-dependent degradation |  | 
13 | Nc1ncnc2c1c(-c1ccc(Oc3ccccc3)cc1)nn2C1CCN(C2CCN(CCN3CCC(c4ccc5c(c4)CN(C4CCC(=O)NC4=O)C5=O)CC3)CC2)CC1 (stereo not drawn) [Compound 220, 3-(5-(1-(2-(4-(4-amino-3-(4-phenoxyphenyl)-1H-pyrazolo[3,4-d]pyrimidin-1-yl)-[1,4′-bipiperidin]-1′-yl)ethyl)piperidin-4-yl)-1-oxoisoindolin-2-yl)piperidine-2,6-dione] | 1000 to 10000 |  |  | 1000 to 10000 |  | > 75 | 10 to 50
14 | NC(=O)c1c(-c2ccc(Oc3ccccc3)cc2)nn2c1NCCC2C1CCN(C2CCN(CC3CCN(c4ccc5c(c4)CN(C4CCC(=O)NC4=O)C5=O)CC3)CC2)CC1 (stereo not drawn) [Compound 306, 7-(1′-((1-(2-(2,6-dioxopiperidin-3-yl)-1-oxoisoindolin-5-yl)piperidin-4-yl)methyl)-[1,4′-bipiperidin]-4-yl)-2-(4-phenoxyphenyl)-4,5,6,7-tetrahydropyrazolo[1,5-a]pyrimidine-3-carboxamide] | 1000 to 10000 |  |  | 1000 to 10000 |  | > 90 | 10 to 50
15 | Nc1ncnc2c1c(-c1ccc(Oc3ccccc3)cc1)nn2C1CCN(C2CCN(CCCN3CCC(c4ccc(N5CCC(=O)NC5=O)cc4)CC3)CC2)CC1 [Compound 571, 1-(4-(1-(3-(4-(4-amino-3-(4-phenoxyphenyl)-1H-pyrazolo[3,4-d]pyrimidin-1-yl)-[1,4′-bipiperidin]-1′-yl)propyl)piperidin-4-yl)phenyl)dihydropyrimidine-2,4(1H,3H)-dione] | < 1000 | 10 to 50 | > 90 | < 1000 |  |  | 
16 | NC(=O)c1c(-c2ccc(Oc3ccccc3)cc2)nn2c1NCCC2C1CCN(CC2CCN(C(=O)N3CCC(CN4CCN(c5ccc6c(c5)CN(C5CCC(=O)NC5=O)C6=O)CC4)CC3)CC2)CC1 (stereo not drawn) [Compound 370, 7-(1-((1-(4-((4-(2-(2,6-dioxopiperidin-3-yl)-1-oxoisoindolin-5-yl)piperazin-1-yl)methyl)piperidine-1-carbonyl)piperidin-4-yl)methyl)piperidin-4-yl)-2-(4-phenoxyphenyl)-4,5,6,7-tetrahydropyrazolo[1,5-a]pyrimidine-3-carboxamide] | < 1000 |  |  | < 1000 |  | > 90 | < 10
